Assay results from patent US20220220128A1, “HETEROCYCLIC COMPOUNDS AS KINASE INHIBITORS, COMPOSITIONS COMPRISING THE HETEROCYCLIC COMPOUND, AND METHODS OF USE THEREOF” (JS Innopharm (Shanghai) Ltd, priority 2019, published 2022).

Key:
human RET kinase = target: T1, human RET kinase (Homo sapiens, UniProt P07949); test: RET Kinase Assay (LanthaScreen TR-FRET enzymatic assay); format: biochemical; conditions: 7 nM RET, 23 μM ATP
T1 construct: purchased Carna 08-159
Outline: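 Human RET (7 nM) preincubated 15 min with compound in 50 mM HEPES pH 7.5, 0.0015% Brij-35, then reacted with 3 μM FAM-P2 peptide and 23 μM ATP for 1 h at 28° C.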

BAF3-KIF5B-RET cells = target: T2, BAF3-KIF5B-RET cells (Homo sapiens, UniProt P07949); test: BAF3-KIF5B-RET Cell proliferation assay (CellTiter-Glo, 72 hours); format: cell-based; conditions: growth inhibition, read-out: BA/F3-KIF5B-RET Cellular activity
T2 construct: fused on or other part: P33176 (Kinesin-1 heavy chain)
T2 sequence (P07949 whole entry, change not shown, the tested form may be a part): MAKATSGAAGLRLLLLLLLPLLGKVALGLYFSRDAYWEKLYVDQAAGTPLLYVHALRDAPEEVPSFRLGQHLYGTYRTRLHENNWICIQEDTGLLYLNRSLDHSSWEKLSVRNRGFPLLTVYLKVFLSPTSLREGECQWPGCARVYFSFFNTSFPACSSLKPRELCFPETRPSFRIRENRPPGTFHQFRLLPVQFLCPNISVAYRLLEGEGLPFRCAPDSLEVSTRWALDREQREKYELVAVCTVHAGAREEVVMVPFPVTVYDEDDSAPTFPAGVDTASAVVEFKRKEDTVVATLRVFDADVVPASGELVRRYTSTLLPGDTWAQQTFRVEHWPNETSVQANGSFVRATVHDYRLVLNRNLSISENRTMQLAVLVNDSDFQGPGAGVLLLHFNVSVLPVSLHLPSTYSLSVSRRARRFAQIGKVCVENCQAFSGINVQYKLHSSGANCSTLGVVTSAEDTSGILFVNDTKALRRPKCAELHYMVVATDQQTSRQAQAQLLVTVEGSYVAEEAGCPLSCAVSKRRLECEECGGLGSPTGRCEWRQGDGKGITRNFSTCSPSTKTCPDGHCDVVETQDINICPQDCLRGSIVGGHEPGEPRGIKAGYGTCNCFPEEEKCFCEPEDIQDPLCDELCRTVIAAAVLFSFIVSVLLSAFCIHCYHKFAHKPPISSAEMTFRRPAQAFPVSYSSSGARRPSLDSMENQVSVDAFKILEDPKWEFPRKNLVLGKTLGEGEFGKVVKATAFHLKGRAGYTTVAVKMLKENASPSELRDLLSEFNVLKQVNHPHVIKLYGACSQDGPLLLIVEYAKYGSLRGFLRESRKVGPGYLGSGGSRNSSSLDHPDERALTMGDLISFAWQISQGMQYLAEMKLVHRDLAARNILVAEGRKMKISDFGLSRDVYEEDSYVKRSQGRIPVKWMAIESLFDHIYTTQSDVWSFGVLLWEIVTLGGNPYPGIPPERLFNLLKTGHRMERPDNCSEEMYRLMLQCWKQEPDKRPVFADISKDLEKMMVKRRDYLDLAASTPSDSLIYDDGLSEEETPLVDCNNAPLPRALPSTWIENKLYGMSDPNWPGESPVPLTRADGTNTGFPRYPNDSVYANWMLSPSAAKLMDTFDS
Experimental: Compounds disclosed herein were tested for the inhibition of RET by a cancer cell proliferation assay commonly known as CellTiter-Glo assay. In this assay, a complete media was prepared by adding 10% fetal bovine serum to RPMI-1640 medium (Life technology) for BAF3-FIF5B-RET cells. BAF3-KIF5B-RET cells were added to each of 88 wells of a 96 well plate at a seeding density of 2,000 cells/well/95 μL. The cells were allowed to attach to the plate by incubating at 37° C. for 24 hours. The compound was dissolved in DMSO (SIGMA). A solution of test compound was prepared in complete media by serial dilution to obtain the following concentrations: 20 μM, 6.67 μM, 2.22 μM, 0.74 μM, 0.25 μM, 0.082 μM, 0.027 μM, 0.0091 μM and 0.0030 μM. The test compound solution (5 μL) was added to each of 80 cell-containing wells. The final concentrations of the compound were following: 1 μM, 0.33 μM, 0.11 μM, 0.037 μM, 0.012 μM, 0.0041 μM, 0.0014 μM, 0.00046 μM and 0.00015 μM. The final concentration of DMSO is 0.1%. To the 8 remaining cell-containing wells, only complete media (containing 0.1% DMSO) was added to form a control group in order to measure maximal proliferation. To the remaining 8 empty wells, complete media was added to for a vehicle control group in order to measure background. The plates were incubated at 37° C. for 72 hours. 50 μl of CellTiter-Glo® Reagent was added to each well. Mix contents for 2 minutes on an orbital shaker to induce cell lysis. Incubate at room temperature for 10 minutes to stabilize luminescent signal. Record luminescence on Paradigm. Cell viability (CV %) was calculated relative to vehicle (DMSO) treated control wells. The IC50 was calculated using GraphPad Prism.

human KDR kinase = target: T3, human KDR kinase (Homo sapiens, UniProt P35968); test: KDR Kinase Assay (LanthaScreen TR-FRET enzymatic assay); format: biochemical; conditions: 1.2 nM KDR, 92 μM ATP
T3 construct: purchased Carna 08-191
T3 sequence (P35968 20-1356): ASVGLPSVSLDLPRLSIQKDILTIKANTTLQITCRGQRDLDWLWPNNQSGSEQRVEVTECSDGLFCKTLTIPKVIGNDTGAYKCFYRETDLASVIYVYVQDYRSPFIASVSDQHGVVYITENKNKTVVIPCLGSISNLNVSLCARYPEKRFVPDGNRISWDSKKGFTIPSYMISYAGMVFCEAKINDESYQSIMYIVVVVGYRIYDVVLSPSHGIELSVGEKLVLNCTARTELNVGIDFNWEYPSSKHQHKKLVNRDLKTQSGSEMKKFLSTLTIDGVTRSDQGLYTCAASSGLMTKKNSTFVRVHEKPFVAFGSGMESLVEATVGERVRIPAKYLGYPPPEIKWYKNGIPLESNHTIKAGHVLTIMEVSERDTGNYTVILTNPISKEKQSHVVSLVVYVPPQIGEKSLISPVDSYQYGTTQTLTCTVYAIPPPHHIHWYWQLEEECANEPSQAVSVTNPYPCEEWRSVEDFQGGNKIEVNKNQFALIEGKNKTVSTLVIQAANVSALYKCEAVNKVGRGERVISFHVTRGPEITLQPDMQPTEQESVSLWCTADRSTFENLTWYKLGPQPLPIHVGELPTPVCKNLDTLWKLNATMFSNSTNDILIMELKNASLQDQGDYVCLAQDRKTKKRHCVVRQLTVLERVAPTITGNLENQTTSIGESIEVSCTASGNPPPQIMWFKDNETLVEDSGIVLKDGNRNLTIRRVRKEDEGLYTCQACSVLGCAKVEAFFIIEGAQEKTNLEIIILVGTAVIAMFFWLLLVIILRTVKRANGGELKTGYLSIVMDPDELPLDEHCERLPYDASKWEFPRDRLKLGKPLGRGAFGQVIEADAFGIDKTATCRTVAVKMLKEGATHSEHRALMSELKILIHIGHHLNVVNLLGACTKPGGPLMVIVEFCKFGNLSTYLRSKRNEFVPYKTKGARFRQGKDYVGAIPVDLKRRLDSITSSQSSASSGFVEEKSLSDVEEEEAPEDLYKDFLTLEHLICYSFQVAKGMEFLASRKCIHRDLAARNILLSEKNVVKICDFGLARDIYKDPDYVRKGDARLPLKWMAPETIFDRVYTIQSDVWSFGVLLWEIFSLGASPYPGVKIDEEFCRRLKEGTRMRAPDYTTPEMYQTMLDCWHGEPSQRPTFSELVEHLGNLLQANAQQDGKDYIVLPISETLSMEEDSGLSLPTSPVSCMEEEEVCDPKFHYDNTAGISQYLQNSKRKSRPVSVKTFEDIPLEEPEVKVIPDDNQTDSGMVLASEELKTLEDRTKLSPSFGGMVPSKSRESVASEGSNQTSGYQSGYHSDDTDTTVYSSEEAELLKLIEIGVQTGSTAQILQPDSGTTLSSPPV
Outline: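 Recombinant human KDR (1.2 nM) preincubated 15 min at room temperature with compound, then reacted with 3 μM FAM-P22 peptide and 92 μM ATP in 50 mM HEPES pH 7.5 for 1 h at 28° C. EDTA stop, then TR-FRET acceptor/donor ratio read; percent of 1% DMSO control fitted sigmoidally for IC50.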

TT cells = test: TT Cell Proliferation Assay (WST-8, 8 days); format: cell-based; conditions: Homo sapiens, TT, 192 h, growth inhibition in TT cells, read-out: TT Cellular Activity
Outline: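 TT cells, 6,000/well in RPMI-1640 with 10% FBS, attached 24 h, then exposed to compound at 5 μM down to 0.0005 μM final (0.5% DMSO) for 8 days at 37 °C. WST-8 added for 5 h, absorbance at 450 nm. IC50 calculated from the dilution series.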

T1 sequence (P07949 29-1114): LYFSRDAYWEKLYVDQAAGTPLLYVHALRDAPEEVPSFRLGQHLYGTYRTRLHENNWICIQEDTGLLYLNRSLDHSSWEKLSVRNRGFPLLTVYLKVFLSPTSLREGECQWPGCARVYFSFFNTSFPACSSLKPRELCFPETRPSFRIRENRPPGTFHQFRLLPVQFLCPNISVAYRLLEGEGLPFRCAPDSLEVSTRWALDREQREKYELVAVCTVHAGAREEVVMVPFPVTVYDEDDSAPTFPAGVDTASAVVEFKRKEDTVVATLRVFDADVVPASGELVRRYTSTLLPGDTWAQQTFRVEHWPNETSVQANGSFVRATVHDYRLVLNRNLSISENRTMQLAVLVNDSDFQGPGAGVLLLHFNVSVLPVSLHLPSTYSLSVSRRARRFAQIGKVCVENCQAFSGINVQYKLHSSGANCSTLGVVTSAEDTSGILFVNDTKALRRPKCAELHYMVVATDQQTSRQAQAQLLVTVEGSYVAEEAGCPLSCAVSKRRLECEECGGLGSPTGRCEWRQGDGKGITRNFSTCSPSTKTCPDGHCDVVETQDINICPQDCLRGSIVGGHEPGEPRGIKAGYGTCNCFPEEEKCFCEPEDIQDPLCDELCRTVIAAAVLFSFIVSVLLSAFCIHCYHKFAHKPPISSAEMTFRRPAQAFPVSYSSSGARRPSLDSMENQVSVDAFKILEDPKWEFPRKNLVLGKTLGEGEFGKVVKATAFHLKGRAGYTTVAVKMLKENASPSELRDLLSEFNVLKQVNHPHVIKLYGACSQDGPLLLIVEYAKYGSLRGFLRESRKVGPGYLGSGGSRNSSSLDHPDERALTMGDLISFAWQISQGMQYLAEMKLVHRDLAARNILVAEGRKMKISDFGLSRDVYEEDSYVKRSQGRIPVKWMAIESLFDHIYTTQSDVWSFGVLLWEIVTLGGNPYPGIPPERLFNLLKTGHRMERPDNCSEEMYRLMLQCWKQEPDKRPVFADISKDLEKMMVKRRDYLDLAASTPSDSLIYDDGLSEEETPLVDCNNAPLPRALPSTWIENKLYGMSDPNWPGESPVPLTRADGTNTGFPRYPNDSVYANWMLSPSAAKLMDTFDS

| IC50 (human RET kinase) | GI50 (BAF3-KIF5B-RET cells) | IC50 (human KDR kinase) | Structure (SMILES) | IC50 (TT cells) |
| --- | --- | --- | --- | --- |
| ≤ 10 nM | 50 to 100 nM | – | COc1ccc(CNC(=O)[C@H]2[C@@H]3CN(c4ccc(-c5cc(OCC(C)(C)O)cn6ncc(C#N)c56)cn4)C[C@@H]32)cn1 [Example 119, (1R,5S,6r)-3-(5-(3-cyano-6-(2-hydroxy-2-methylpropoxy)pyrazolo[1,5-a]pyridin-4-yl)pyridin-2-yl)-N-((6-methoxypyridin-3-yl)methyl)-3-azabicyclo[3.1.0]hexane-6-carboxamide] | – |
| 10 to 50 nM | > 100 nM | – | COc1ccc(CN2[C@@H]3CC[C@H]2[C@H]2CN(c4ccc(-c5cc(OCC(C)(C)O)cn6ncc(C#N)c56)cn4)C[C@H]23)cn1 [Example 117, 6-(2-hydroxy-2-methylpropoxy)-4-(6-((3aR,4S,7R,7aS)-8-((6-methoxypyridin-3-yl)methyl)hexahydro-1H-4,7-epiminoisoindol-2(3H)-yl)pyridin-3-yl)pyrazolo[1,5-a]pyridine-3-carbonitrile] | – |
| ≤ 10 nM | ≤ 10 nM | – | CC(C)(O)COc1cc(-c2ccc(N3C[C@@H]4[C@@H](CNC(=O)c5c(F)cccc5Cl)[C@@H]4C3)nc2)c2c(C#N)cnn2c1 [Example 125, 2-chloro-N-(((1R,5S,6s)-3-(5-(3-cyano-6-(2-hydroxy-2-methylpropoxy)pyrazolo[1,5-a]pyridin-4-yl)pyridin-2-yl)-3-azabicyclo[3.1.0]hexan-6-yl)methyl)-6-fluorobenzamide] | – |
| ≤ 10 nM | 10 to 50 nM | – | COc1ccc(C(=O)NC23CC4CC(C2)N(c2cnc(-c5cc(OCC(C)(C)O)cn6ncc(C#N)c56)cn2)C(C4)C3)cn1 [Example 166, N-((1R,3S,5s,7s)-2-(5-(3-cyano-6-(2-hydroxy-2-methylpropoxy)pyrazolo[1,5-a]pyridin-4-yl)pyrazin-2-yl)-2-azaadamantan-5-yl)-6-methoxynicotinamide] | – |
| ≤ 10 nM | ≤ 10 nM | – | COc1cncc(C(=O)N[C@]2(C)C[C@H]3CN(c4cnc(-c5cc(-c6cnn(C)c6)cn6ncc(C#N)c56)cn4)C[C@H]3C2)c1 [Example 148, N-((3aR,5s,6aS)-2-(5-(3-cyano-6-(1-methyl-1H-pyrazol-4-yl)pyrazolo[1,5-a]pyridin-4-yl)pyrazin-2-yl)-5-methyloctahydrocyclopenta[c]pyrrol-5-yl)-5-methoxynicotinamide] | – |
| ≤ 10 nM | – | > 100 nM | CCOc1cc(-c2ccc(N3C[C@@H]4C[C@@](C)(NC(=O)c5nc(C)ccc5Cl)C[C@@H]4C3)nc2)c2c(C#N)cnn2c1 [Example 67, 3-chloro-N-((3aR,5s,6aS)-2-(5-(3-cyano-6-ethoxypyrazolo[1,5-a]pyridin-4-yl)pyridin-2-yl)-5-methyloctahydrocyclopenta[c]pyrrol-5-yl)-6-methylpicolinaniide] | 50 to 100 nM |
| ≤ 10 nM | – | 10 to 50 nM | COc1ccc(CN[C@H]2[C@@H]3CN(c4ccc(-c5cc(-c6cnn(C)c6)cn6ncc(C#N)c56)cn4)C[C@@H]32)cn1 [Example 33, 4-(6-((1R,5S,6s)-6-(((6-methoxypyridin-3-yl)methyl)amino)-3-azabicyclo[3.1.0]hexan-3-yl)pyridin-3-yl)-6-(1-methyl-1H-pyrazol-4-yl)pyrazolo[1,5-a]pyridine-3-carbonitrile] | 10 to 50 nM |
| ≤ 10 nM | – | ≤ 10 nM | Cn1cc(-c2cc(-c3ccc(N4C[C@@H]5[C@H](C4)[C@H]5NC(=O)c4c(F)cccc4Cl)nc3)c3c(C#N)cnn3c2)cn1 [Example 24, 2-chloro-N-((1R,5S,6s)-3-(5-(3-cyano-6-(1-methyl-1H-pyrazol-4-yl)pyrazolo[1,5-a]pyridin-4-yl)pyridin-2-yl)-3-azabicyclo[3.1.0]hexan-6-yl)-6-fluorobenzamide] | 10 to 50 nM |
| ≤ 10 nM | – | 10 to 50 nM | Cn1cc(-c2cc(-c3ccc(N4C[C@H]5CN(C(=O)C(O)c6ccccc6)C[C@H]5C4)nc3)c3c(C#N)cnn3c2)cn1 (stereo partly drawn) [Example 3, 4-(6-((3aR,6aS)-5-(2-hydroxy-2-phenylacetyl)hexahydropyrrolo[3,4-c]pyrrol-2(1H)-yl)pyridin-3-yl)-6-(1-methyl-1H-pyrazol-4-yl)pyrazolo[1,5-a]pyridine-3-carbonitrile] | 10 to 50 nM |
| ≤ 10 nM | – | > 100 nM | CCOc1cc(-c2cnc(N3C[C@@H]4C[C@@](C)(NC(=O)c5ncccc5Cl)C[C@@H]4C3)cn2)c2c(C#N)cnn2c1 [Example 60, 3-chloro-N-((3aR,5s,6aS)-2-(5-(3-cyano-6-ethoxypyrazolo[1,5-a]pyridin-4-yl)pyrazin-2-yl)-5-methyloctahydrocyclopenta[c]pyrrol-5-yl)picolinamide] | 10 to 50 nM |
| ≤ 10 nM | – | 10 to 50 nM | CC(C)[C@@H](O)C(=O)N[C@H]1[C@@H]2CN(c3ccc(-c4cc(-c5cnn(C)c5)cn5ncc(C#N)c45)cn3)C[C@@H]21 [Example 19, (R)-N-((1R,5S,6s)-3-(5-(3-cyano-6-(1-methyl-1H-pyrazol-4-yl)pyrazolo[1,5-a]pyridin-4-yl)pyridin-2-yl)-3-azabicyclo[3.1.0]hexan-6-yl)-2-hydroxy-3-methylbutanamide] | 10 to 50 nM |
| ≤ 10 nM | – | ≤ 10 nM | Cn1cc(-c2cc(-c3ccc(N4C[C@@H]5[C@@H](CNC(=O)c6ncccc6C(F)(F)F)[C@@H]5C4)nc3)c3c(C#N)cnn3c2)cn1 [Example 186, N-(((1R,5S,6s)-3-(5-(3-cyano-6-(1-methyl-1H-pyrazol-4-yl)pyrazolo[1,5-a]pyridin-4-yl)pyridin-2-yl)-3-azabicyclo[3.1.0]hexan-6-yl)methyl)-3-(trifluoromethyl)picolinamide] | ≤ 10 nM |
| ≤ 10 nM | – | 10 to 50 nM | CC(C)CC(=O)N[C@H]1[C@@H]2CN(c3ccc(-c4cc(-c5cnn(C)c5)cn5ncc(C#N)c45)cn3)C[C@@H]21 [Example 25, N-((1R,5S,6s)-3-(5-(3-cyano-6-(1-methyl-1H-pyrazol-4-yl)pyrazolo[1,5-a]pyridin-4-yl)pyridin-2-yl)-3-azabicyclo[3.1.0]hexan-6-yl)-3-methylbutanamide] | 10 to 50 nM |
| ≤ 10 nM | – | 10 to 50 nM | CCOc1cc(-c2ccc(N3C[C@@H]4C[C@@](C)(NC(=O)c5ncc(F)cc5Cl)C[C@@H]4C3)nc2)c2c(C#N)cnn2c1 [Example 64, 3-chloro-N-((3aR,5s,6aS)-2-(5-(3-cyano-6-ethoxypyrazolo[1,5-a]pyridin-4-yl)pyridin-2-yl)-5-methyloctahydrocyclopenta[c]pyrrol-5-yl)-5-fluoropicolinamide] | 50 to 100 nM |
| ≤ 10 nM | – | 10 to 50 nM | CC(C)C(O)C(=O)N[C@H]1[C@@H]2CN(c3ccc(-c4cc(-c5cnn(C)c5)cn5ncc(C#N)c45)cc3)C[C@@H]21 (stereo partly drawn) [Example 16, N-((1R,5S,6s)-3-(4-(3-cyano-6-(1-methyl-1H-pyrazol-4-yl)pyrazolo[1,5-a]pyridin-4-yl)phenyl)-3-azabicyclo[3.1.0]hexan-6-yl)-2-hydroxy-3-methylbutanamide] | 10 to 50 nM |
| ≤ 10 nM | – | 10 to 50 nM | Cn1cc(-c2cc(-c3ccc(N4C[C@@H]5[C@@H](CNC(=O)c6c(F)cccc6Cl)[C@@H]5C4)nc3)c3c(C#N)cnn3c2)cn1 [Example 83, 2-chloro-N-(((1R,5S,6s)-3-(5-(3-cyano-6-(1-methyl-1H-pyrazol-4-yl)pyrazolo[1,5-a]pyridin-4-yl)pyridin-2-yl)-3-azabicyclo[3.1.0]hexan-6-yl)methyl)-6-fluorobenzamide] | ≤ 10 nM |
| 10 to 50 nM | – | 10 to 50 nM | COc1ccc(C(=O)N[C@]2(C)C[C@H]3CN(c4ccc(-c5cc(OCC(C)(C)O)cn6ncc(C#N)c56)cn4)C[C@H]3C2)cn1 [Example 126, N-((3aR,5s,6aS)-2-(5-(3-cyano-6-(2-hydroxy-2-methylpropoxy)pyrazolo[1,5-a]pyridin-4-yl)pyridin-2-yl)-5-methyloctahydrocyclopenta[c]pyrrol-5-yl)-6-methoxynicotinamide] | 50 to 100 nM |
